Source: article PMC4601023, “Novel anticancer agent, SQAP, binds to focal adhesion kinase and modulates its activity” (Scientific Reports, 2015)

Columns and labels:
Format in all cases: cell-based, human
[1] = tested on: A549 cells; assay: In vitro cell migration assay (Oris kit), A549; conditions: A549, 96 well cell migration kit
Protocol: (§1) Figure 6 SQAP inhibits cell migration in vitro. (A) HUVEC cells were seeded and grown to 100% confluence in 60-mm diameter dishes. After generating a single scratch in the monolayer, the cells were cultured for 11 h in medium containing 1% FBS and VEGF (50 ng/mL) in the presence or absence of SQAP. Photographs were taken immediately after 11 h. (B) The change in wound width was measured as described in the Materials and Methods. (C) A549 cells were seeded and grown to 100% confluence in 60-mm diameter dishes. After generating a single scratch in the monolayer, the cells cultured for the 25 h in media containing 1% FBS and fibronectin (10 μg/ml) treated with SQAP or vehicle. Photographs were collected immediately after wounding and after 25 h. (D) The change in wound width was measured as described in the Materials and Methods. Cell migration was additionally examined in 96 well plates. HUVEC (E) and A549 cells (F) were seeded and grown into confluence overnight. […] The fluorescent emission signal was obtained with a plate reader. […]
(§2) Wound healing was additionally assessed in HUVEC or A549 cells using a cell migration kit (Oris, Madison, WI, USA) as described by the manufacturer. […] The fluorescence emission signal in the migration zones was measured on a Wallac Arvo 5x microplate reader (Perkin Elmer, Waltham, MA, USA).

[2] = tested on: paxillin phosphorylation at Y118 in HUVEC; assay: Paxillin phosphorylation in HUVEC, Western blotting; conditions: total paxillin unaltered
Description: (§3) Furthermore, we looked at FAK signaling pathway to validate our results. Paxillin binds to FAK 919–938 residues which is a sequence contained within the region where SQAP is predicted to bind. Binding between paxillin and FAK results in paxillin phosphorylation at Y118[35][36]. Thus, we examined paxillin phosphorylation. […] Additionally, we studied Akt phosphorylation at S473 on account of FAK is a known factor in control of Akt activity. We observed that Akt phosphorylation was diminished when treated with SQAP or SQMG for 21 h (see Supplementary Fig. S3).
(§4) Cells were harvested and solubilized in RIPA buffer (20 mM Tris-HCl, pH 7.5, 1% Sodium deoxycholate, 150 mM NaCl, 5 mM EDTA, 1% Triton X-100, 0.1% SDS, 0.1%, 1 mM PMSF, 1 mM vanadate and 1 μg/mL leupeptin). Protein quantification was determined using the DC protein assay kit (Bio-Rad, Hercules, CA, USA). A total of 15 μg of each protein sample were separated by SDS–PAGE gels and blotted onto polyvinylidene difluoride membranes (Merck, Kenilworth, NJ, US). After blocking for 1 h with Blocking-One (Nacalai Tesque, Kyoto, Japan), proteins were detected by incubating the membranes with the primary antibody at 4 °C overnight (anti-Y397 2:2000, anti-Y925 5:2000 and anti-FAK 0.5:2000) followed by incubation with horseradish peroxidase-conjugated secondary antibodies at room temperature for 1 h (anti-mouse 0.5:2000 and anti-rabbit 0.4:2000).

[3] = tested on: Akt phosphorylation at S473 in HUVEC; assay: Akt phosphorylation in HUVEC, Western blotting; conditions: treated for 21 h, 10 µM
Description: as §3
as §4, with “0.4:2000). […]” for “0.4:2000).”

[4] = tested on: HUVEC cells; assay: WST-8 cell viability assay, HUVEC; conditions: 17 h, SQAP 10 and 20 µM
Protocol: (§5) HUVEC and A549 cells were seeded into a 96-well culture plate (2 × 10^4 cells/well). The following day, cells were treated with SQAP or vehicle in a medium containing 1% FBS and VEGF (50 ng/mL) for 17 h (HUVEC) or fibronectin (10 μg/mL) for 46 h (A549). Cell viability was measured using Cell Count Reagent SF (Nacalai Tesque, Kyoto, Japan) following the manufacturer’s instructions. Briefly, 1/10 volume of the WST-8 solution was added to each well, and the plates were incubated at 37 °C for 1 h. Then, cell viability was determined colorimetrically by measuring OD450 using a microplate reader on a Wallac ARVO 5X microplate reader (Perkin Elmer, Waltham, MA, USA).
(§6) control SQAP 10 µM SQAP 20 µM
(§7) Livecellswere measured with SF reagent under similarconditionsas describedin thewound healing
(§8) assayinFig.5. (A)HUVEC and (B)A549 cells.
(§9) (also on this page, place not known: Cell viability (%) Cell viability (%) Live cells were similar conditions as described in the wound assay in Fig. 5. (A) HUVEC (B) A549)

[5] = tested on: A549 cells; assay: WST-8 cell viability assay, A549; conditions: A549, 46 h, SQAP 10 and 20 µM
Protocol: as §5, §6, §7, §8, §9

[6] = tested on: paxillin phosphorylation at Y118 in A549; assay: Paxillin phosphorylation in A549, Western blotting; conditions: A549, 21 h treatment, 10 µM
Protocol: Fibronectin is a glycoprotein located in the extracellular matrix that binds to integrins. […] A549 lung cancer cells have been used before for studying cell migration because of their metastatic model potential. A549 cells are also one of the tumor cell lines sensitive to SQMG[9]. Therefore, we studied the phosphorylation of FAK in A549 cells (Fig. 5C,D). SQAP could inhibit the phosphorylation of FAK at Y397 and Y925 after 1 h treatment in a dose dependent manner. […] We also examined paxillin and Akt phosphorylation in A549 as downstream targets of FAK. […] We hypothesize that SQAP diminish on Akt phosphorylation being more readily in A549 cancer cells than in HUVEC endothelial cells might be due to a higher Akt basal activity on cancer cells.
Cells were harvested and solubilized in RIPA buffer (20 mM Tris-HCl, pH 7.5, 1% Sodium deoxycholate, 150 mM NaCl, 5 mM EDTA, 1% Triton X-100, 0.1% SDS, 0.1%, 1 mM PMSF, 1 mM vanadate and 1 μg/mL leupeptin). Protein quantification was determined using the DC protein assay kit (Bio-Rad, Hercules, CA, USA). A total of 15 μg of each protein sample were separated by SDS–PAGE gels and blotted onto polyvinylidene difluoride membranes (Merck, Kenilworth, NJ, US). […]

[7] = tested on: HUVEC cells; assay: In vitro cell migration assay (Oris kit), HUVEC; conditions: 96 well cell migration kit
Protocol: as §1, §2

[8] = tested on: FAK phosphorylation (Y397, Y925) in HUVEC cells; assay: FAK phosphorylation level in HUVEC, Western blotting
Protocol: HUVEC cells were incubated for 20 h in serum-free medium in 60 mm dishes. SQAP, SQMG or SQP was added and incubated for 30 min followed by addition of 50 ng/mL VEGF (RD systems, Minneapolis, MN. USA) and incubation for another 30 min. FAK phosphorylation level was analyzed by Western blotting as described in the next section.
as §4

SMILES: CCCCCCCCCCCCCCCCCC(=O)OCCCO[C@H]1O[C@H](CS(=O)(=O)O)[C@@H](O)[C@H](O)[C@H]1O [SQAP, sulfoquynovosylacylpropanediol]
- cell migration [1]: arrested
- paxillin phosphorylation at Y118 [2]: inhibition of paxillin-phosphorylation
- Akt phosphorylation at S473 [3]: diminished
- cytotoxicity (WST-8 cell viability) [4]: noncytotoxic
- cytotoxicity (WST-8 cell viability) [5]: noncytotoxic
- paxillin phosphorylation at Y118 [6]: inhibition of paxillin phosphorylation at Y118 took 21 h treatment
- cell migration [7]: arrested
- phosphorylation level of FAK at Y397 and at Y925 after VEGF stimulation ([8]; VEGF 50 ng/mL, 1 h): appreciably reduced
- phosphorylation of FAK in the absence of VEGF ([8]; no VEGF, within 1 h): inhibited
